# Results as given in US20250326744A1, “PIPERAZINE DERIVATIVE OR SALT THEREOF, AND PHARMACEUTICAL COMPOSITION” (priority 2022, published 2025).
# Where a name gives a salt, the structure may show the parent alone.
# What was measured:
# mexB (PA) strain = experiment: Combinational effect with antibacterial agent against Pseudomonas aeruginosa (Test Examples 2 and 4): mexB (PA) strain with LVFX, TC or AZT at 1/4 MIC, EC99; assay type: cell-based; conditions: Table 52, Test Example 2, 16 to 20 hours culture, OD595; for EC99, mexB (PA), AZT: combined with AZT at 1/4 MIC; for EC99, mexB (PA), LVFX: combined with LVFX at 1/4 MIC; for EC99, mexB (PA), TC: combined with TC at 1/4 MIC
# Experimental: (§1) The combinational effect of the test compound with the antibacterial agent against Pseudomonas aeruginosa was evaluated.
# For the evaluation of the inhibitory ability against MexAB-OprM, a mutant strain of Pseudomonas aeruginosa in which MexAB-OprM was expressed as a main drug efflux pump (hereinafter, referred to as a “mexB (PA) strain”) was used. LVFX, TC, or AZT was used as the antibacterial agent used in combination.
# The mexB (PA) strain is a strain produced by deleting the genes of MexCD-OprJ, MexEF-OprN, and MexXY in the drug efflux pump of Pseudomonas aeruginosa described in FEMS Microbiology Letters, 2001, Vol. 202, pp. 139 to 143. In the mexB (PA) strain, an expression level of MexB as a drug efflux pump is accelerated.
# TC is a tetracycline-based antibacterial agent and is a drug that is discharged outside the bacteria by MexB. AZT is a monobactam-based antibacterial agent and is a drug that is discharged outside the bacteria by MexB.
# (§2) AMK and GM are aminoglycoside-based antibacterial agents, and are drugs that are not discharged outside the bacteria by MexB but are discharged outside the bacteria by MexY For the culture of each Pseudomonas aeruginosa strain, a 96-well plate (amount of culture medium per well: 100 μL) was used, and cation-adjusted Mueller Hinton broth (CAMHB) was used. The inoculation amount of the bacteria was set to 10^4 to 5 CFU/well.
# (§3) The mexB (PA) strain and the S-3769 strain were cultured for 16 to 20 hours in a culture medium to which each antibacterial agent and test compounds at various concentrations (0 to 800 μM) were added, and the proliferation of the bacterial strains was evaluated by optical turbidity at 595 nm (OD595). The concentration of the antibacterial agent in the culture medium was set to ¼ MIC.
# (§4) The proliferation of bacteria in a case where the test compound and the antibacterial agent were not added was measured, and compared with the proliferation of bacteria in a case where the test compound in a case where the antibacterial agent was added at the concentration of ¼ MIC was contained, and the lowest concentration of the test compound at which the proliferation was inhibited by 99% or more was defined as the drug efflux pump inhibitory ability of the test compound as 99% inhibitory effect concentration (EC99).
# (§5) The effect of suppressing the proliferation of each test compound in combination with an antibacterial agent at ¼ MIC for mexB (PA) or the S-3769 strain was evaluated as follows according to the value of EC99. • S: EC99≤12.5 μM • A: 12.5 μM<EC99≤25 μM • B: 25 μM<EC99≤100 μM • C: 100 μM<EC99
# (§6) The combinational effect of the test compound with the antibacterial agent against Pseudomonas aeruginosa was evaluated in the same manner as in Test Example 2.
# S-3769 strain = experiment: Combinational effect with antibacterial agent against Pseudomonas aeruginosa (Test Examples 2 and 4): S-3769 strain with AMK or GM at 1/4 MIC, EC99; assay type: cell-based; conditions: Table 52, Test Example 2, 16 to 20 hours culture, OD595; for EC99, S-3769 strain, AMK: combined with AMK at 1/4 MIC; for EC99, S-3769 strain, GM: combined with GM at 1/4 MIC
# Experimental: as §1
# The […] was used for evaluating the inhibitory ability against MexXY-OprM. AMK or GM was used as the antibacterial agent used in combination.
# The S-3769 strain is a clinically isolated strain collected from a domestic medical institution, and is a strain in which the expression level of MexY is accelerated.
# as §2, §3, §4, §5, §6
SMILES,"EC99, mexB (PA), AZT (mexB (PA) strain)","EC99, mexB (PA), LVFX (mexB (PA) strain)","EC99, mexB (PA), TC (mexB (PA) strain)","EC99, S-3769 strain, AMK (S-3769 strain)","EC99, S-3769 strain, GM (S-3769 strain)"
"CCOc1cccc(F)c1CN1CCN(C(=O)[C@H](N)C2CCN(CCc3c(F)cccc3-c3ccccc3)CC2)CC1 [Example 52, Hydrobromide of (R)-2-amino-1-(4-(2-ethoxy-6-fluorobenzyl)piperazin-1-yl)-2-(1-(2-(3-fluoro-[1,l′-biphenyl]-2-yl)ethyl)piperidin-4-yl)ethan-1-one]",B (25 μM<EC99≤100 μM),B (25 μM<EC99≤100 μM),B (25 μM<EC99≤100 μM),A (12.5 μM<EC99≤25 μM),S (EC99≤12.5 μM)
"CCOc1cccc(F)c1CN1CCN(C(=O)[C@H](N)C2CCN(CCc3c(Cl)cccc3-c3ccccc3)CC2)CC1 [Example 53, Hydrobromide of (R)-2-amino-2-(1-(2-(3-chloro-[1,1′-biphenyl]-2-yl)ethyl)piperidin-4-yl)-1-(4-(2-ethoxy-6-fluorobenzyl)piperazin-1-yl)ethan-1-one]",B (25 μM<EC99≤100 μM),B (25 μM<EC99≤100 μM),B (25 μM<EC99≤100 μM),S (EC99≤12.5 μM),S (EC99≤12.5 μM)
"CCOc1cccc(F)c1CN1CCN(C(=O)[C@H](N)C2CCN(CCc3cc(Cl)ccc3C3=CCCCC3)CC2)CC1 [Example 56, Hydrobromide of (R)-2-amino-2-(1-(2-(4-chloro-2′,3′,4′,5′-tetrahydro-[1,1′-biphenyl]-2-yl)ethyl)piperidin-4-yl)-1-(4-(2-ethoxy-6-fluorobenzyl)piperazin-1-yl)ethan-1-one]",B (25 μM<EC99≤100 μM),C (100 μM<EC99),B (25 μM<EC99≤100 μM),A (12.5 μM<EC99≤25 μM),A (12.5 μM<EC99≤25 μM)
"CCOc1cccc(F)c1CN1CCN(C(=O)[C@H](N)C2CCN(CCc3cc(Cl)ccc3-c3cccc(S(F)(F)(F)(F)F)c3)CC2)CC1 [Example 57, Hydrobromide of (R)-2-amino-2-(1-(2-(4-chloro-3′-(pentafluoro-λ6-sulfanyl)-[1,1′-biphenyl]-2-yl)ethyl)piperidin-4-yl)-1-(4-(2-ethoxy-6-fluorobenzyl)piperazin-1-yl) ethan-1-one]",C (100 μM<EC99),C (100 μM<EC99),B (25 μM<EC99≤100 μM),B (25 μM<EC99≤100 μM),B (25 μM<EC99≤100 μM)
"CCOc1cccc(F)c1CN1CCN(C(=O)[C@H](N)C2CCN(CCc3cc(Cl)ccc3-c3cccc(P(C)(C)=O)c3)CC2)CC1 [Example 58, Hydrobromide of (R)-2-amino-2-(1-(2-(4-chloro-3′-(dimethylphosphoryl)-[1,1′-biphenyl]-2-yl)ethyl)piperidin-4-yl)-1-(4-(2-ethoxy-6-fluorobenzyl)piperazin-1-yl) ethan-1-one]",C (100 μM<EC99),C (100 μM<EC99),C (100 μM<EC99),A (12.5 μM<EC99≤25 μM),B (25 μM<EC99≤100 μM)
"CCOc1cccc(F)c1CN1CCN(C(=O)[C@H](N)C2CCN(CCc3cc(Cl)ccc3-c3cccc(C#N)c3)CC2)CC1 [Example 65, Hydrobromide of (R)-2′-(2-(4-(1-amino-2-(4-(2-ethoxy-6-fluorobenzyl)piperazin-1-yl)-2-oxoethyl)piperidin-1-yl)ethyl)-4′-chloro-[1,1′-biphenyl]-3-carbonitrile]",B (25 μM<EC99≤100 μM),C (100 μM<EC99),B (25 μM<EC99≤100 μM),A (12.5 μM<EC99≤25 μM),A (12.5 μM<EC99≤25 μM)
"CCOc1cccc(F)c1CN1CCN(C(=O)[C@H](N)C2CCN(CCc3cc(Cl)ccc3-c3cccc(C)c3)CC2)CC1 [Example 68, Hydrobromide of (R)-2-amino-2-(1-(2-(4-chloro-3′-methyl-[1,1′-biphenyl]-2-yl)ethyl)piperidin-4-yl)-1-(4-(2-ethoxy-6-fluorobenzyl)piperazin-1-yl)ethan-1-one]",B (25 μM<EC99≤100 μM),B (25 μM<EC99≤100 μM),B (25 μM<EC99≤100 μM),A (12.5 μM<EC99≤25 μM),A (12.5 μM<EC99≤25 μM)
"CCOc1cccc(F)c1CN1CCN(C(=O)[C@H](N)C2CCN(CCc3cc(Cl)ccc3-c3ccc(C)cc3)CC2)CC1 [Example 69, Hydrobromide of (R)-2-amino-2-(1-(2-(4-chloro-4′-methyl-[1,1′-biphenyl]-2-yl)ethyl)piperidin-4-yl)-1-(4-(2-ethoxy-6-fluorobenzyl)piperazin-1-yl)ethan-1-one]",C (100 μM<EC99),C (100 μM<EC99),B (25 μM<EC99≤100 μM),S (EC99≤12.5 μM),S (EC99≤12.5 μM)
"CCOc1cccc(F)c1CN1CCN(C(=O)[C@H](N)C2CCN(CCc3cc(Cl)ccc3C3=CCNCC3)CC2)CC1 [Example 71, (R)-2-amino-2-(1-(5-chloro-2-(1,2,3,6-tetrahydropyridin-4-yl)phenethyl)piperidin-4-yl)-1-(4-(2-ethoxy-6-fluorobenzyl)piperazin-1-yl)ethan-1-one]",C (100 μM<EC99),B (25 μM<EC99≤100 μM),S (EC99≤12.5 μM),S (EC99≤12.5 μM),S (EC99≤12.5 μM)
"CCOc1cccc(F)c1CN1CCN(C(=O)[C@H](N)C2CCN(CCc3cc(Cl)ccc3-c3cccs3)CC2)CC1 [Example 72, Hydrobromide of (R)-2-amino-2-(1-(5-chloro-2-(thiophen-2-yl)phenethyl)piperidin-4-yl)-1-(4-(2-ethoxy-6-fluorobenzyl)piperazin-1-yl)ethan-1-one]",B (25 μM<EC99≤100 μM),C (100 μM<EC99),B (25 μM<EC99≤100 μM),S (EC99≤12.5 μM),S (EC99≤12.5 μM)
"CCOc1cccc(F)c1CN1CCN(C(=O)[C@H](N)C2CCN(CCc3cc(Cl)ccc3-c3cccnc3)CC2)CC1 [Example 73, Hydrobromide of (R)-2-amino-2-(1-(5-chloro-2-(pyridin-3-yl)phenethyl)piperidin-4-yl)-1-(4-(2-ethoxy-6-fluorobenzyl)piperazin-1-yl)ethan-1-one]",A (12.5 μM<EC99≤25 μM),C (100 μM<EC99),B (25 μM<EC99≤100 μM),S (EC99≤12.5 μM),S (EC99≤12.5 μM)
"CCOc1cccc(F)c1CN1CCN(C(=O)[C@H](N)C2CCN(CCc3cc(Cl)ccc3-c3ccncc3)CC2)CC1 [Example 74, Hydrobromide of (R)-2-amino-2-(1-(5-chloro-2-(pyridin-4-yl)phenethyl)piperidin-4-yl)-1-(4-(2-ethoxy-6-fluorobenzyl)piperazin-1-yl)ethan-1-one]",C (100 μM<EC99),C (100 μM<EC99),C (100 μM<EC99),S (EC99≤12.5 μM),A (12.5 μM<EC99≤25 μM)
"CCOc1cccc(F)c1CN1CCN(C(=O)[C@H](N)C2CCN(CCc3cc(Cl)ccc3-c3ccccc3OC)CC2)CC1 [Example 76, Hydrobromide of (R.)-2-amino-2-(1-(2-(4-chloro-2′-methoxy-[1,1′-biphenyl]-2-yl)ethyl)piperidin-4-yl)-1-(4-(2-ethoxy-6-fluorobenzyl)piperazin-1-yl)ethan-1-one]",A (12.5 μM<EC99≤25 μM),B (25 μM<EC99≤100 μM),B (25 μM<EC99≤100 μM),A (12.5 μM<EC99≤25 μM),A (12.5 μM<EC99≤25 μM)
